Source: ChEMBL document CHEMBL4680333, “Lipophilic tail modifications of 2-(hydroxymethyl)pyrrolidine scaffold reveal dual sphingosine kinase 1 and 2 inhibitors” (Bioorg Med Chem, 2021)

target: T1, Sphingosine kinase 2 (Homo sapiens) (UniProt Q9NRA0); assay: Inhibition of recombinant human SphK2 assessed as decrease in [33P]SIP production at 0.3 uM using sphingosine as substrate in presence of [gamma33P]-ATP by scintillation counting method relative to control
T1 sequence (whole entry): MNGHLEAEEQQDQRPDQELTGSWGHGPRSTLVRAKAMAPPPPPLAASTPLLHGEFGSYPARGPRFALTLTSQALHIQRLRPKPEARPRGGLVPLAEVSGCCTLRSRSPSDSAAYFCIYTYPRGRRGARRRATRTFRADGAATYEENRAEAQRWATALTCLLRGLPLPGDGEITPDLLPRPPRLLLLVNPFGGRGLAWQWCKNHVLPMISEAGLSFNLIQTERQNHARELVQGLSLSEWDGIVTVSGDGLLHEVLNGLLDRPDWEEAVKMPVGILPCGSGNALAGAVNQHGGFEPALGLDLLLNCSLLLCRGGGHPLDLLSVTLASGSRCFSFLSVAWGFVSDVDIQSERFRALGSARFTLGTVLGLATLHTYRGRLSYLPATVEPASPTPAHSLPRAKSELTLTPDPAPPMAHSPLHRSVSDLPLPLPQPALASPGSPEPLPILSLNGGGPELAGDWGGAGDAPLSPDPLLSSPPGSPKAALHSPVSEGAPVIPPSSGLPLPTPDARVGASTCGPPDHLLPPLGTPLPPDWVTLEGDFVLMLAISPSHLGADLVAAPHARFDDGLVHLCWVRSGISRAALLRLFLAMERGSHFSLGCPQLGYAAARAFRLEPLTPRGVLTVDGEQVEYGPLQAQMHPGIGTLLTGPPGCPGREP

| SMILES | inhibition |
| --- | --- |
| Cc1cc(/C=C/c2ccc(C(C)(C)C)cc2)ccc1CN1CCC[C@@H]1CO | 3% |
| CCCCc1ccc(C#Cc2ccc(CN3CCC[C@@H]3CO)cc2)cc1 | 25% |
| CCCCCCCCCCOc1ccc(CN2CCC[C@@H]2CO)cc1 | 11% |
| OC[C@H]1CCCN1Cc1ccc(/C=C/c2cccc(C(F)(F)F)c2)cc1 | 0% |
| CCCCc1ccc(CCc2ccc(CN3CCC[C@@H]3CO)cc2)cc1 | 0% |
| OC[C@H]1CCCN1Cc1ccc(Oc2ccccc2)cc1 | 13% |
| OC[C@H]1CCCN1Cc1ccc(Oc2ccc(-c3ccccc3)cc2)cc1 | 9% |
| CCCCCCCCCCCCc1ccc(CN2CCC[C@@H]2CO)c(C)c1 | 38% |
| CCCCCCCCCc1ccc(CN2CCC[C@@H]2CO)cc1 | 44% |
| Cc1ccc(CCc2ccc(CN3CCC[C@@H]3CO)cc2)cc1 | 26% |
| CCCCCCCCCCCc1ccc(CN2CCC[C@@H]2COC(C)=O)cc1 | 2% |
| OC[C@H]1CCCN1Cc1ccc(Oc2cccc(-c3ccc(C(F)(F)F)cc3)c2)cc1 | 1% |
| CCCCCCCCOc1ccc(CN2CCC[C@@H]2CO)cc1 | 1% |
| CCCCCCCCCOc1ccc(CN2CCC[C@@H]2CO)cc1 | 44% |
| OC[C@H]1CCCN1Cc1ccc(Oc2ccc(-c3cccc(C(F)(F)F)c3)cc2)cc1 | 52% |
| CCCc1ccc(CCc2ccc(CN3CCC[C@@H]3CO)cc2)cc1 | 15% |
| CCCc1ccc(C#Cc2ccc(CN3CCC[C@@H]3CO)cc2)cc1 | 0% |
| CC(C)(C)c1cccc(Oc2ccc(CN3CCC[C@@H]3CO)cc2)c1 | 11% |
| CCCCCCCOc1ccc(CN2CCC[C@@H]2CO)cc1 | 0% |
| CC(C)(C)c1ccc(Oc2ccc(CN3CCC[C@@H]3CO)cc2)cc1 | 22% |

Next, values leading:

| inhibition | SMILES |
| --- | --- |
| 19% | CCCCCc1ccc(C#Cc2ccc(CN3CCC[C@@H]3CO)cc2)cc1 |
| 0% | OC[C@H]1CCCN1Cc1ccc(OCc2ccc(C(F)(F)F)cc2)cc1 |
| 37% | CCCCCCCCCCCCc1ccc(CN2CCC[C@@H]2CO)cc1 |
| 3% | COc1ccc(CCc2ccc(CN3CCC[C@@H]3CO)cc2)cc1 |
| 18% | CCCCCCCCCCCc1ccc(CN2CCC[C@@H]2CO)cc1 |
| 0% | OC[C@H]1CCCN1Cc1ccc(Oc2cccc(-c3ccccc3)c2)cc1 |
| 0% | OC[C@H]1CCCN1Cc1ccc(Oc2ccc(-c3ccc(C(F)(F)F)cc3)cc2)cc1 |
| 11% | OC[C@H]1CCCN1Cc1ccc(Oc2cccc(-c3cccc(C(F)(F)F)c3)c2)cc1 |
| 13% | CCCCCc1ccc(CCc2ccc(CN3CCC[C@@H]3CO)cc2)cc1 |
| 54% | CCCCCCCCCCc1ccc(CN2CCC[C@@H]2CO)cc1 |

target: T2, Sphingosine kinase 2 (Homo sapiens, UniProt Q9NRA0)
T2 sequence (Q9NRA0 whole entry): T1 sequence (whole entry)
Description: Inhibition of recombinant human SphK2 assessed as decrease in [33P]SIP production using sphingosine as substrate in presence of [gamma33P]-ATP by scintillation counting method

| Ki | SMILES |
| --- | --- |
| 951 nM | CCCCCCCCCCCCc1ccc(CN2CCC[C@@H]2CO)cc1 |
| 400 nM | CCCCCCCCOc1ccc(COc2ccc(-c3noc([C@@H]4CCCN4C(=N)N)n3)cc2C(F)(F)F)cc1 |
